# From US4450269A, “Mono-5-substituted-3-chloro-4H-1,2,6-thiadiazin-4-one antifungal agents” (FMC Corporation, priority 1980, dated 1984)
# Counter-ions that a name gives are not always drawn. Like-named read-outs stand apart in the source and are kept apart here.
# Key:
# [1] = system: Pyricularia oryzae; type: cell-based; conditions: PO, 48 hours
# [2] = system: Phytophthora infestans; assay: whole plant or invertebrate; type: in vivo; conditions: for pest or weed control at 150 ppm: Phytophthora infestans, in Solanum lycopersicum, foliar, read-out: Percent Disease Control, foliar, tomato late blight, 150 ppm, protective; for Percent Disease Control, foliar, tomato late blight: 150 ppm, protective
# [3] = system: Alternaria solani; assay: Mycelial growth test; type: cell-based; conditions: AS; for inhibition at 5 ppm / inhibition at 10 ppm / inhibition at 20 ppm / inhibition at 40 ppm: Alternaria solani, 72 h, read-out: Percent Fungus Growth Inhibition; for Percent Fungus Growth Inhibition: 72 hours, hydrochloride
Compound,Spore Germination Rating ([1]; 1.0 ppm),Spore Germination Rating ([1]; 2.5 ppm),Spore Germination Rating ([1]; 10 ppm),Spore Germination Rating ([1]; 40 ppm),pest or weed control at 150 ppm [2],inhibition at 5 ppm ([3]; 5 ppm),inhibition at 10 ppm ([3]; 10 ppm),inhibition at 20 ppm ([3]; 20 ppm),inhibition at 40 ppm ([3]; 40 ppm),"Percent Disease Control, foliar, tomato late blight [2]","Spore Germination Rating ([1]; 2.5 ppm, hydrochloride)","Percent Disease Control, foliar, tomato late blight ([2]; hydrochloride)",Percent Fungus Growth Inhibition ([3]; 5 ppm),Percent Fungus Growth Inhibition ([3]; 10 ppm),Percent Fungus Growth Inhibition ([3]; 20 ppm),Percent Fungus Growth Inhibition ([3]; 40 ppm)
"Cc1cccc(C)c1Oc1nsnc(Cl)c1=O [Compound 24, 3-chloro-5-(2,6-dimethylphenoxy)-4H--1,2,6-thiadiazin-4-one]",3 (60-80),0 (0-10),0 (0-10),0 (0-10),98%,100%,88%,100%,100%,–,–,–,–,–,–,–
"Cc1cc(C)cc(Oc2nsnc(Cl)c2=O)c1 [Compound 25, 3-chloro-5-(3,5-dimethylphenoxy)-4H--1,2,6-thiadiazin-4-one]",3 (60-80),0 (0-10),0 (0-10),0 (0-10),100%,69%,75%,81%,88%,–,–,–,–,–,–,–
"Nc1ccc(Oc2nsnc(Cl)c2=O)cc1 [Compound 26, 5-(4-aminophenoxy)-3-chloro-4H--1,2,6-thiadiazin-4-one]",4 (80-100),2 (40-60),0 (0-10),0 (0-10),–,60%,80%,100%,100%,0%,–,–,–,–,–,–
"Nc1ccc(Oc2nsnc(Cl)c2=O)cc1 [Compound 27, 5-(4-aminophenoxy)-3-chloro-4H--1,2,6-thiadiazine-4-one hydrochloride]",–,–,–,–,–,–,–,–,–,–,0 (0-10),98%,47%,73%,80%,87%
"CNC(=O)Nc1ccc(Oc2nsnc(Cl)c2=O)cc1 [Compound 28, 3-chloro-5-[4-(3-methylureido)-phenoxy]-4H--1,2,6-thiadiazin-4-one]",4 (80-100),4 (80-100),4 (80-100),1 (10-40),90%,40%,47%,50%,70%,–,–,–,–,–,–,–
"O=C(Nc1ccccc1)Nc1ccc(Oc2nsnc(Cl)c2=O)cc1 [Compound 29, 3-chloro-5-[4-(3-phenylureido)-phenoxy]-4H--1,2,6-thiadiazin-4-one]",4 (80-100),4 (80-100),4 (80-100),2 (40-60),100%,47%,30%,37%,47%,–,–,–,–,–,–,–
"O=c1c(Cl)nsnc1Oc1c(Cl)cc(Cl)cc1Cl [Compound 30, 3-chloro-5-(2,4,6-trichlorophenoxy)-4H--1,2,6-thiadiazin-4-one]",3 (60-80),0 (0-10),0 (0-10),0 (0-10),0%,29%,67%,81%,90%,–,–,–,–,–,–,–
"O=c1c(Cl)nsnc1Oc1c(Cl)c(Cl)c(Cl)c(Cl)c1Cl [Compound 31, 3-chloro-5-(pentachlorophenoxy)-4H--1,2,6-thiadiazine-4-one]",0 (0-10),0 (0-10),0 (0-10),0 (0-10),0%,48%,60%,48%,67%,–,–,–,–,–,–,–
"O=c1c(Cl)nsnc1Oc1cccc2ccccc12 [Compound 32, 3-chloro-5(1-naphthoxy)-4H-1,2,6-thiadiazin-4-one]",2 (40-60),0 (0-10),0 (0-10),0 (0-10),0%,58%,58%,88%,92%,–,–,–,–,–,–,–
"O=c1c(Cl)nsnc1Oc1ccccc1Br [Compound 34, 3-chloro-5-(2-bromophenoxy)-4H-1,2,6,-thiadiazin-4-one]",1 (10-40),0 (0-10),0 (0-10),0 (0-10),0%,100%,100%,100%,100%,–,–,–,–,–,–,–
"O=c1c(Cl)nsnc1Oc1ccc(O)cc1 [Compound 35, 3-chloro-5-(4-hydroxyphenoxy)-4H-1,2,6-thiadiazin-4-one]",2 (40-60),0 (0-10),0 (0-10),0 (0-10),100%,90%,100%,100%,100%,–,–,–,–,–,–,–
"O=C(Nc1ccccc1)Oc1ccc(Oc2nsnc(Cl)c2=O)cc1 [Compound 37, 3-chloro-5-[4-(phenylaminocarbonyloxy)phenoxy]-4H-1,2,6,-thiadiazin-4-one]",4 (80-100),3 (60-80),0 (0-10),2 (40-60),0%,46%,50%,50%,54%,–,–,–,–,–,–,–
"CSc1ccc(Oc2nsnc(Cl)c2=O)cc1 [Compound 39, 3-chloro-5-[(4-methylthio)phenoxy]-4H-1,2,6,-thiadiazin-4-one]",2 (40-60),1 (10-40),1 (10-40),0 (0-10),0%,42%,33%,42%,54%,–,–,–,–,–,–,–
"C[S+]([O-])c1ccc(Oc2nsnc(Cl)c2=O)cc1 (stereo not drawn) [Compound 40, 3-chloro-5-[(4-methylsulfinyl)phenoxy]-4H-1,2,6,-thiadiazin-4-one]",4 (80-100),3 (60-80),4 (80-100),1 (10-40),75%,54%,75%,92%,100%,–,–,–,–,–,–,–
"CS(=O)(=O)c1ccc(Oc2nsnc(Cl)c2=O)cc1 [Compound 41, 3-chloro-5-[(4-methylsulfonyl)phenoxy]-4H--1,2,6-thiadiazin-4-one]",4 (80-100),3 (60-80),0 (0-10),0 (0-10),90%,54%,58%,58%,100%,–,–,–,–,–,–,–
"CC(=O)Nc1cccc(Oc2nsnc(Cl)c2=O)c1 [Compound 42, 3-[(3-N--acetylamino)-phenoxy]-5-chloro-4H--1,2,6-thiadiazin-4-one]",4 (80-100),4 (80-100),3 (60-80),0 (0-10),0%,24%,33%,52%,90%,–,–,–,–,–,–,–
"CC(=O)Nc1ccccc1Oc1nsnc(Cl)c1=O [Compound 43, 3-[(2-acetylamino)-phenoxy]-5-chloro-4H--1,2,6-thiadiazin-4-one]",4 (80-100),4 (80-100),4 (80-100),1 (10-40),0%,80%,100%,100%,100%,–,–,–,–,–,–,–
"O=c1c(Cl)nsnc1Oc1cccc(C(F)(F)F)c1 [Compound 44, 3-chloro-5-[(3-trifluoromethyl)phenoxy]-4H--1,2,6-thiadiazin-4-one]",1 (10-40),0 (0-10),0 (0-10),0 (0-10),0%,52%,62%,100%,100%,–,–,–,–,–,–,–
